Data published in paper PMC3469418, “New Partners in Regulation of Gene Expression: The Enhancer of Trithorax and Polycomb Corto Interacts with Methylated Ribosomal Protein L12 Via Its Chromodomain” (PLoS Genetics, 2012).
Read-outs that look alike come from different tables or passages of the source. Where a SMILES comes first, the peptide text is derived from it. Where no end group is shown, it is not given here. [ ]: non-standard residue; d: D form. Lys(Me3) = C[N+](C)(C)CCCC[C@H](N)C(=O)O; Lys(Me2) = CN(C)CCCC[C@H](N)C(=O)O

Assays:
[1] = biological target: T1, Corto chromodomain (GST-CortoCD) (Drosophila melanogaster, UniProt P41046); test: Biacore real-time binding of peptides to immobilized GST-CortoCD; details: for kon: pH 7.4, Figure 5B, Biacore 3000, CM5 chip, peptides 1 to 10 µM in running buffer (10 mM Hepes pH7.4, 150 mM NaCl), 5 µL/min for 5 min, 1:1 Langmuir fit, read-out: CortoCD Ka
T1 construct: Over-expression of the Corto chromodomain (CortoCD); made in house
T1 sequence (P41046 127-203 limits assumed): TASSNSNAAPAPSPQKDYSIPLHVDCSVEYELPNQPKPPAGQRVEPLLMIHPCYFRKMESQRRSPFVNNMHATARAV
Procedure: (§1) To test whether Corto directly interacted with RPL12 lysine 3, we measured real-time binding between CortoCD and several RPL12 peptides using Biacore. GST-CortoCD and GST were immobilized on a CM5 sensor chip. Then, several RPL12 peptides [unmodified (RPL12um), methylated on lysine 3 (RPL12K3me2, RPL12K3me3), methylated on lysine 10 (RPL12K10me3) or lysine 3 mutated (RPL12K3A)] were assayed for their binding to GST-CortoCD or GST (Figure 5, Figure S3).
(D) Equilibrium dissociation constant (KD) calculated from CortoCD or HP1CD interacting with unmethylated or trimethylated histone H3 peptides. For H3K9me3, peptide concentration was increased from 0 to 1 µM. For RPL12 and H3K27me3 peptide concentration was increased from 0 to 10 µM. NB: no binding; nd: not determined.
(§2) GST or GST fusion proteins were dialyzed using a Slide-A-Lyser cassette (Thermo Scientific) in running buffer (10 mM Hepes pH7.4, 150 mM NaCl, 3 mM EDTA, 0.005% P20 surfactant) (GE Healthcare). Real-time protein interaction assays were performed using a Biacore 3000. Kinetics and binding tests were first performed on empty surfaces. Data presented here result from substraction of empty surface RU (1 to 5 depending on the experiment) from active surface RU. GST was covalently coupled to a CM5 sensor chip (GE Healthcare) via its N-terminal amino acid. The carboxymethylated dextran surface was activated by injecting a mixture of 0.2 M 1-ethyl-3-(3-dimethylaminopropyl) and 0.05 M N-hydroxysuccinimide. GST was immobilized on the chip by injecting a 30 µg.mL^−1 solution in NaAc pH5 buffer. GST-CortoCD and GST-HP1CD were immobilized by injecting a 100 µg.mL^−1 solution in the same buffer. Binding tests were performed by injecting peptides at 1 or 10 µM in running buffer at a flow rate of 5 µL.min^−1 during 5 min. Kinetic assays were performed only when the binding test was positive. […] To calculate association constants, peptides were diluted in series from 1 to 10 µM in running buffer and dilutions were injected sequentially at a flow rate of 5 µL.mn^−1 during 5 min. Dissociation kinetics were then run during 10 min to calculate dissociation constants. Between assays, the chip was regenerated with 10 mM glycine pH2.0. Kinetic constants were calculated with BIAevaluation Software (Biacore) using the Fit kinetic simultaneous ka/kd (1∶1 binding; Langmuir algorithm). RPL12 peptides were synthesized at the IFR83 Peptide synthesis facility (Table S13). Histone peptides were provided by Diagenode (H3K27me3: sp-069-050; H3K4me3: sp-003-050; H3K9me3: sp-056-050; H3K4/K9um: sp-999-050; H3K27um: sp-998-050).

GST = biological target: T2, GST (Schistosoma japonicum, UniProt P08515); test: Biacore real-time binding of peptides to immobilized GST (control surface); details: binding test, peptides at 1 or 10 µM
T2 construct: made in house
Procedure: as §1
as §2, with “RPL12 peptides were synthesized at the IFR83 Peptide synthesis facility (Table S13). Histone peptides were provided by Diagenode (H3K27me3: sp-069-050; H3K4me3: sp-003-050; H3K9me3: sp-056-050; H3K4/K9um: sp-999-050; H3K27um: sp-998-050).” left out

[2] = biological target: HP1 chromodomain (GST-HP1CD) (Drosophila melanogaster, UniProt P05205); test: Biacore real-time binding of peptides to immobilized GST-HP1CD
Procedure: Figure 5 Preferential binding of Corto chromodomain to RPL12 trimethylated on lysine 3. (A) Biacore sensorgrams showing binding of either RPL12 unmethylated peptide (RPL12 um, left panel) or RPL12 peptide trimethylated on lysine 3 (RPL12K3me3, right panel) to CortoCD. Increasing concentrations of RPL12 um or RPL12K3me3 peptides were used [from 0 (light grey lines) to 10 µM (darker grey to black lines]. Binding (Y-axis, Response) is expressed in Resonance Units (RU) relative to time (X-axis). Note the response due to end of injection of the peptides at 300 s. (B) Kinetic parameters of interaction between CortoCD and RPL12 um, RPL12K3me2 or RPL12K3me3 peptides. Note that CortoCD interacts specifically with RPL12 trimethylated on lysine 3 (KD = 8 µM). (C) Equilibrium dissociation constant (KD) calculated for CortoCD or HP1CD in interaction with RPL12 um peptide, RPL12 methylated peptides, or RPL12K3A peptide. Note that CortoCD specifically binds to RPL12K3me3 (KD<100 µM). (D) Equilibrium dissociation constant (KD) calculated from CortoCD or HP1CD interacting with unmethylated or trimethylated histone H3 peptides. For H3K9me3, peptide concentration was increased from 0 to 1 µM. For RPL12 and H3K27me3 peptide concentration was increased from 0 to 10 µM. NB: no binding; nd: not determined. TEXT PRINTED IN THE PICTURE: (B) RpL12um: CortoCD Ka ( M^-1s^-1): 1.2; CortoCD Kd ( s^-1): 7.6.10^-4; CortoCD KD (μM): 624 | (B) RpL12K3me2: CortoCD Ka ( M^-1s^-1): 4.1; CortoCD Kd ( s^-1): 9.9.10^-4; CortoCD KD (μM): 238 | (B) RpL12K3me3: CortoCD Ka ( M^-1s^-1): 106; CortoCD Kd ( s^-1): 8.2.10^-4; CortoCD KD (μM): 8 | (C) RpL12um: CortoCD: 624; HP1CD: > 1000 | (C) RpL12K3me2: CortoCD: 238 | (C) RpL12K3me3: CortoCD: 8; HP1CD: 292 | (C) RpL12K10me3: CortoCD: NB; HP1CD: NB | (C) RpL12K3A: CortoCD: NB; HP1CD: NB | (D) H3K4me3: CortoCD: NB; HP1CD: NB | (D) H3K9me3: CortoCD: NB; HP1CD: 0.4 | (D) H3K27me3: CortoCD: NB; HP1CD: 0.7 | (D) H3um: CortoCD: NB; HP1CD: NB | (D) H3K27um: CortoCD: NB; HP1CD: NB DOUBTS OF THE COPYIST ABOUT THIS PICTURE: Panels C and D: the picture prints no measure or unit for the table values, so they are given with the row head only / Panel C, RpL12K3me2, HP1CD: the cell prints 'nd', which is not a result and is left out
To investigate whether RPL12K3me3 could bind to other chromodomains, we repeated these experiments using that of HP1 (HP1CD). GST-HP1CD was immobilized on the sensor chip and binding of either RPL12, RPL12K3me3, RPL12K10me3 or RPL12K3A was tested. None of these peptides specifically interacted with HP1CD (KD>200 µM) (Figure 5C, Figure S3). […] No binding of unmodified H3, H3K27me3, H3K9me3 or H3K4me3 peptides was observed (Figure 5D) while, as expected, the H3K9me3 peptide bound HP1CD with high affinity (KD = 0.4 µM).
GST or GST fusion proteins were dialyzed using a Slide-A-Lyser cassette (Thermo Scientific) in running buffer (10 mM Hepes pH7.4, 150 mM NaCl, 3 mM EDTA, 0.005% P20 surfactant) (GE Healthcare). Real-time protein interaction assays were performed using a Biacore 3000. Kinetics and binding tests were first performed on empty surfaces. Data presented here result from substraction of empty surface RU (1 to 5 depending on the experiment) from active surface RU. GST was covalently coupled to a CM5 sensor chip (GE Healthcare) via its N-terminal amino acid. The carboxymethylated dextran surface was activated by injecting a mixture of 0.2 M 1-ethyl-3-(3-dimethylaminopropyl) and 0.05 M N-hydroxysuccinimide. […]

[3] = >200 µM = no specific interaction, read-out: KD for HP1CD

Chain of HP1 chromodomain (GST-HP1CD) (P05205 24-82 limits assumed): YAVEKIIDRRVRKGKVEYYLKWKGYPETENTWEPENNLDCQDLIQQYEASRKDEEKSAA
T2 sequence (P08515 whole entry): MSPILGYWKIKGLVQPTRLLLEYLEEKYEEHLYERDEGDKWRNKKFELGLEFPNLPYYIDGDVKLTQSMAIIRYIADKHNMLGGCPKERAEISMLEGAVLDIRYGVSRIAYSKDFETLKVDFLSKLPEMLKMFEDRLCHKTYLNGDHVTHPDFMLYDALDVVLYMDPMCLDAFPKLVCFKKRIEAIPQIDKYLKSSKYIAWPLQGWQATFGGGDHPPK

H-PPAFDPTEVKLVYLRCVGGEVGA-OH [RpL12K3A]
Kd [1]: > 200 µM
binding of RPL12 peptides to GST (in words) (GST): None of these peptides bound GST
Kd [2, 3]: > 200 µM

PPKFDPTEVKLVYLRCVGGEVGA [RpL12um]
Kd [1]: > 200 µM
kon [1]: 1.2 M⁻¹ s⁻¹
binding of RPL12 peptides to GST (in words) (GST): None of these peptides bound GST
Kd [2, 3]: > 200 µM
Kd ([2]; Figure 5C, RPL12 peptides 0 to 10 µM, NB = no binding, read-out: Equilibrium dissociation constant (KD), HP1CD): > 1000 µM

CC(C)C[C@H](NC(=O)[C@H](Cc1ccc(O)cc1)NC(=O)[C@@H](NC(=O)[C@H](CC(C)C)NC(=O)[C@H](CCCCN)NC(=O)[C@@H](NC(=O)[C@H](CCC(=O)O)NC(=O)[C@@H](NC(=O)[C@@H]1CCCN1C(=O)[C@H](CC(=O)O)NC(=O)[C@H](Cc1ccccc1)NC(=O)[C@H](CCCCN(C)C)NC(=O)[C@@H]1CCCN1C(=O)[C@@H]1CCCN1)[C@@H](C)O)C(C)C)C(C)C)C(=O)N[C@@H](CCCNC(=N)N)C(=O)N[C@@H](CS)C(=O)N[C@H](C(=O)NCC(=O)NCC(=O)N[C@@H](CCC(=O)O)C(=O)N[C@H](C(=O)NCC(=O)N[C@@H](C)C(=O)O)C(C)C)C(C)C [RpL12K3me2] (H-PP[Lys(Me2)]FDPTEVKLVYLRCVGGEVGA-OH)
Kd [1]: > 200 µM
kon [1]: 4.1 M⁻¹ s⁻¹

CC(C)C[C@H](NC(=O)[C@H](Cc1ccc(O)cc1)NC(=O)[C@@H](NC(=O)[C@H](CC(C)C)NC(=O)[C@H](CCCCN)NC(=O)[C@@H](NC(=O)[C@H](CCC(=O)O)NC(=O)[C@@H](NC(=O)[C@@H]1CCCN1C(=O)[C@H](CC(=O)O)NC(=O)[C@H](Cc1ccccc1)NC(=O)[C@H](CCCC[N+](C)(C)C)NC(=O)[C@@H]1CCCN1C(=O)[C@@H]1CCCN1)[C@@H](C)O)C(C)C)C(C)C)C(=O)N[C@@H](CCCNC(=N)N)C(=O)N[C@@H](CS)C(=O)N[C@H](C(=O)NCC(=O)NCC(=O)N[C@@H](CCC(=O)O)C(=O)N[C@H](C(=O)NCC(=O)N[C@@H](C)C(=O)O)C(C)C)C(C)C [RpL12K3me3] (H-PP[Lys(Me3)]FDPTEVKLVYLRCVGGEVGA-OH)
Kd [1]: 8 µM
kon [1]: 106 M⁻¹ s⁻¹
Kd [2, 3]: > 200 µM

CC(C)C[C@H](NC(=O)[C@H](Cc1ccc(O)cc1)NC(=O)[C@@H](NC(=O)[C@H](CC(C)C)NC(=O)[C@H](CCCC[N+](C)(C)C)NC(=O)[C@@H](NC(=O)[C@H](CCC(=O)O)NC(=O)[C@@H](NC(=O)[C@@H]1CCCN1C(=O)[C@H](CC(=O)O)NC(=O)[C@H](Cc1ccccc1)NC(=O)[C@H](CCCCN)NC(=O)[C@@H]1CCCN1C(=O)[C@@H]1CCCN1)[C@@H](C)O)C(C)C)C(C)C)C(=O)N[C@@H](CCCNC(=N)N)C(=O)N[C@@H](CS)C(=O)N[C@H](C(=O)NCC(=O)NCC(=O)N[C@@H](CCC(=O)O)C(=O)N[C@H](C(=O)NCC(=O)N[C@@H](C)C(=O)O)C(C)C)C(C)C [RpL12K10me3] (H-PPKFDPTEV[Lys(Me3)]LVYLRCVGGEVGA-OH)
Kd [1]: > 200 µM
binding of RPL12 peptides to GST (in words) (GST): None of these peptides bound GST
Kd [2, 3]: > 200 µM
